# Laboratory results published in patent publication US7501399B2, “Immunoeffector compounds” (Corixa Corporation, priority 2000, dated 2009).
# Tests used:
# [1] = Rabbit pyrogen test; format: in vivo; conditions: i.v. 10 μg/Kg dose
# Text: In an effort to obtain an immunostimulant that has low pyrogenicity, synthetic molecules have been prepared which share structural similarities with the MPL® immunostimulant (see U.S. patent application Ser. No. 09/810,915, Filed on Mar. 16, 2001, and the present invention). These novel molecules which are collectively called aminoalkyl glucosaminide phosphates (AGPs), consist of an acylated […] moiety linked to an acylated aminoalkyl group (Johnson et al. (1999) Bioorg. Med. Chem. Lett. 9: 2273-2278; PCT/WO98/50399 and references therein). […] The substitution of different chemical moieties within the aminoalkyl structures was designed into the AGPs in anticipation of optimizing stability and solubility properties. Thus the AGPs can be broadly separated into several families based on the structure of their aminoalkyl groups. […] Here we report on studies of the adjuvant properties of a class of AGPs which induce minimal activity in both the rabbit pyrogen test and the ex vivo cytokine assay.
# [2] = system: HBsAg (Hepatitis B Surface Antigen); experiment: Adjuvant activity towards HBsAg, serum titers by ELISA (Example 2); format: in vivo, BALB/c mice
# Protocol: Vaccines were prepared by mixing the adjuvant-containing TEoA (triethanolamine) formulations with recombinant HBsAg. Titers to HBsAg were determined by ELISA from pooled sera (5 mice/group) collected 21 days post-secondary vaccination (Table 1). The nonimmune controls were not vaccinated.
# [3] = system: HBsAg; experiment: Adjuvant activity towards HBsAg, IgG1 and IgG2a isotype titers by ELISA (Example 4); format: in vivo, BALB/c mice
# Protocol: IgG1 and IgG2a isotype titers to HBsAg were determined by ELISA from pooled sera collected 21 days post secondary (Table 3). The nonimmune controls were not vaccinated. […] RC-553 stimulated titers equivalent to the positive controls, MPL® immunostimulant (Table 3).
# [4] = system: TNF-α; experiment: Ex vivo cytokine induction in human whole blood, TNF-α sandwich ELISA; format: cell-based; conditions: 1, 5 and 10 μg/ml in the assay; 4 hr at 37° C.
# Protocol: (§1) The effects of RC-553 on the elaboration of TNF-α and IL-1β was measured under ex vivo conditions on human peripheral blood mononuclear cells. MPL® immunostimulant and RC-553 were formulated in aqueous solutions of 0.2% TEoA/WFI.
# (§2) Human whole blood was used to evaluate the ability of glycolipids (AGPs) to induce proinflammatory cytokines. Human whole blood is collected into heparinized tubes and 0.45 ml of whole blood is admixed with 0.05 ml phosphate buffered saline (PBS, pH 7.4) containing the glycolipid (i.e., the test compounds). The tubes are incubated for 4 hr at 37° C. on a shaker apparatus. The samples are then diluted with 1.5 ml sterile PBS and centrifuged. The supernatants are removed and analyzed for […] TNF-α and IL-1β by sandwich ELISA using R&D Systems' Quantikine immunoassay kits for human TNF-α and IL-1β.
# [5] = system: IL-1β; experiment: Ex vivo cytokine induction in human whole blood, IL-1β sandwich ELISA; format: cell-based
# Protocol: as §1, §2
# [6] = system: iNOS; experiment: iNOS induction in IFN-γ primed J774 murine macrophages, Greiss reagent nitrite release; format: cell-based; conditions: J774 cells primed with IFN-γ
# Protocol: This example illustrates the effects of various glycolipids on iNOS induction in J774 murine macrophages. The murine macrophage cell line J774 can be primed by IFN-γ in vitro and is very responsive to subsequent LPS stimulation of iNOS upregulation as measured by a standard Greiss reagent ELISA assay procedure. The assay utilizes J774 cells seeded at 1×10^6/mL with 30 mL/flask and with IFN-γ added at 100 units/mL for 16-24 hrs. Cells are then harvested and washed and resuspended at 2×10^5/well in a 96-well plate and allowed to adhere. Glycolipid compounds are serially diluted into the wells for a test group and the resulting cultures are incubated for another 36-40 hrs before culture supernatants are collected from Greiss reagent analysis of nitrite release (Green et al. (1982) Anal. Biochem. 126: 131-138). Nitrite content closely parallels iNOS function.
# Potency was determined as the concentration (ng/mL) of glycolipid in culture capable of inducing one-half maximal induction of nitrite (ED50). The lower the ED50 number, the greater the potency for iNOS induction. The ED50 was cacluated according to methods set out in Johnson et al., (1999) J Med Chem. 42: 4640-4649.
# [7] = anti-HBsAg, 2 μg HBsAg + 20 μg adjuvant s.c. day 0 and 21, pooled sera 21 days post-secondary
# [8] = anti-HBsAg, 2.0 μg HBsAg + 25 μg adjuvant s.c. day 0 and 21, pooled sera 21 days post secondary
substance,measurement,setting,value
N—[(R)-3-Tetradecanoyloxytetradecanoyl]-(S)-2-pyrrolidinomethyl 2-Deoxy-4-O-phosphono-2-[(R)-3-tetradecanoyloxytetradecanoylamino]-3-O—[(R)-3-tetradecanoyloxytetradecanoyl]-β-D-glucopyranoside Triethylammonium Salt [RC-553],Pyrogenicity (total rise in ° C. of 3 rabbits),[1]; Table 2,0.3 °C
same,Pyrogenicity (total rise in ° C. of 3 rabbits),[1]; Table 3,0.3 °C
same,Pyrogenicity (total rise in ° C. of 3 rabbits),[1]; Table 4,0.3 °C
same,Pyrogenicity (total rise in ° C. of 3 rabbits),"[1]; solubilized in 10% EtOH/WFI, diluted with 5% dextrose in water, Table 1",0.3 °C
same,anti-HBsAg responses (serum titers) versus antigen alone,[2]; Example 2,significantly higher than control sera receiving antigen alone
same,Serum Titers IgG,[2]; [7],"409,600"
same,Serum Titers IgG1,[2]; [7],"204,800"
same,Serum Titers IgG2a,[2]; [7],"409,600"
same,Serum Titers IgG2b,[2]; [7],"51,200"
same,HBsAg titers versus control group which received antigen in PBS,[3]; Example 4,increased titers compared to the control group
same,Serum Titers IgG1,[3]; [8],"32,000"
same,Serum Titers IgG2a,[3]; [8],"2,048,000"
same,Levels of TNF-α produced,[4],did not produce levels of TNF-α that could be detected
same,Levels of IL-1β produced,"[5]; 1, 5, and 10 μg/ml, 4 hr at 37° C.",did not produce detectable levels of IL-1β
same,"Relative induction of cytokines (IL-1β), MPL® immunostimulant assigned a value of 1",[5]; relative to MPL® immunostimulant = 1,≤ 0.05
same,Maximal iNOS activity / iNOS induction,[6],essentially inactive
